Laboratory results published in publication PMC6421522, “Designing Dual Inhibitors of Anaplastic Lymphoma Kinase (ALK) and Bromodomain-4 (BRD4) by Tuning Kinase Selectivity” (Journal of Medicinal Chemistry, 2019).

Assays:
Experiment in all cases: KINOMEscan scanEDGE
Format in all cases: binding
Settings in all cases: read-out: % Control (1µM)
PAK4 = biological target: T1, PAK4 (Homo sapiens, UniProt O96013)
T1 construct: purchased DiscoveRx KINOMEscan (scanEDGE); Thermo Fisher SelectScreen (Z'-LYTE) for PLK-1
Description: (§1) Compound X was assayed at 1 μM in the DiscoveRx KINOMEscan (scanEDGE) assay platform. The results for single-concentration binding interactions are reported as “%Ctrl” (DMSO = 100%Ctrl), where lower numbers indicate stronger hits.

SRPK3 = biological target: T2, SRPK3 (Homo sapiens, UniProt Q9UPE1)
T2 construct: purchased DiscoveRx KINOMEscan (scanEDGE); Thermo Fisher SelectScreen (Z'-LYTE) for PLK-1
Description: as §1

MAPKAPK2 = biological target: T3, MAPKAPK2 (Homo sapiens, UniProt P49137)
T3 construct: purchased DiscoveRx KINOMEscan (scanEDGE); Thermo Fisher SelectScreen (Z'-LYTE) for PLK-1
Description: as §1

T2 sequence (Q9UPE1 whole entry): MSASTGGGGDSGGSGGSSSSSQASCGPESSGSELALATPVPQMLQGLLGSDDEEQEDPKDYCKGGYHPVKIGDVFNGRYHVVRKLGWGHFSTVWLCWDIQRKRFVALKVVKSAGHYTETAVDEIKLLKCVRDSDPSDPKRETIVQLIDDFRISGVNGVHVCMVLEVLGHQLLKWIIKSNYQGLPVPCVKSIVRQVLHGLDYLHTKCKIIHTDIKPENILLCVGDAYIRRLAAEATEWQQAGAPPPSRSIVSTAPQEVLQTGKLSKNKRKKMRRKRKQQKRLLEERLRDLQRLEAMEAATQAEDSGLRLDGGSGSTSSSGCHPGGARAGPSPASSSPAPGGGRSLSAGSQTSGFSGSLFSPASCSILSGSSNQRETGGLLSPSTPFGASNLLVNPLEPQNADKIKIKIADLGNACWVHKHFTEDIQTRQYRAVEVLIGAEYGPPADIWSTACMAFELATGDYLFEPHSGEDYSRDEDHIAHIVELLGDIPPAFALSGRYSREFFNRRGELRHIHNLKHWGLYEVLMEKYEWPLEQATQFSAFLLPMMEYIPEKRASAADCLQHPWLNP
T1 sequence (O96013 whole entry): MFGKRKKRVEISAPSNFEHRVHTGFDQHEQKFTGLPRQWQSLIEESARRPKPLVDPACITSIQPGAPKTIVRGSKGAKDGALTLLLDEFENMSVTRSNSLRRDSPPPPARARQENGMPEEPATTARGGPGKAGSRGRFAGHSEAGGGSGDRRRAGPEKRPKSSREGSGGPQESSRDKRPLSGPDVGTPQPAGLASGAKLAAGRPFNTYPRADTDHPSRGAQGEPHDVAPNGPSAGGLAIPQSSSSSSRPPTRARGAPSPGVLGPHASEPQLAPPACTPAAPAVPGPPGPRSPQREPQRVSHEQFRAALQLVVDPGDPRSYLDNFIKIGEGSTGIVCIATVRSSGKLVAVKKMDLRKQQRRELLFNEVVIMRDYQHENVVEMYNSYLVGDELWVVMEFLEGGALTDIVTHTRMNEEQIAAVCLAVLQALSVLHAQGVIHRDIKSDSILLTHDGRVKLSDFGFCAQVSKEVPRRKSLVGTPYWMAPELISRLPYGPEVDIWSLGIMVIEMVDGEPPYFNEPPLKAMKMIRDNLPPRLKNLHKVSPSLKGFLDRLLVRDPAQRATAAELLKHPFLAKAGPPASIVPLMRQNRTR
T3 sequence (P49137 whole entry): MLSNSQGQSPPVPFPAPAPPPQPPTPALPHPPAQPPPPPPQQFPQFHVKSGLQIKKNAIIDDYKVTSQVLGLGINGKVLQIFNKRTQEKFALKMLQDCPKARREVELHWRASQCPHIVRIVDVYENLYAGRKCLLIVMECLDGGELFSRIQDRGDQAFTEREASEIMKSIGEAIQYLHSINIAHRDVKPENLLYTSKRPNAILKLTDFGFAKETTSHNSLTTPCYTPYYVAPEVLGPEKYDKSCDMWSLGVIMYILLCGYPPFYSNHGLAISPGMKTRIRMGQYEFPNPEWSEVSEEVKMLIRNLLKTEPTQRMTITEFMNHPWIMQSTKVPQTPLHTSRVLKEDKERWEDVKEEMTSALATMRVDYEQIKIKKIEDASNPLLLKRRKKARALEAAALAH

- remaining binding at 1 µM (PAK4): 100%
- remaining binding at 1 µM (SRPK3): 100%
- remaining binding at 1 µM (MAPKAPK2): 100%
SMILES: CCOc1cc(C2CCN(C)CC2)ccc1Nc1ncc2c(n1)N(Cc1cc(C)cs1)[C@H](CC)C(=O)N2C [16k, (R)-2-((2-Ethoxy-4-(1-methylpiperidin-4-yl)phenyl)amino)-7-ethyl-5-methyl-8-((4-methylthiophen-2-yl)methyl)-7,8-dihydropteridin-6(5H)-one]
